Data from patent US10894807B2 (Siemens Medical Solutions USA, Inc., priority 2011, dated 2021).
Where “and” joins values, the source holds several entries; their conditions need not be identical. Equal entries are not always repeated.

Biological target: human PSMA (Homo sapiens (Human), UniProt Q04609)
Assay: Enzymatic assay for in vitro evaluation of PSMA inhibitors (fluorescent assay of PSMA activity, NAAG substrate, OPA detection of glutamate)
Format: biochemical
Conditions: for PSMA Blkg % (10 μM): compound at 10 μM

Chain of human PSMA (Q04609 whole entry): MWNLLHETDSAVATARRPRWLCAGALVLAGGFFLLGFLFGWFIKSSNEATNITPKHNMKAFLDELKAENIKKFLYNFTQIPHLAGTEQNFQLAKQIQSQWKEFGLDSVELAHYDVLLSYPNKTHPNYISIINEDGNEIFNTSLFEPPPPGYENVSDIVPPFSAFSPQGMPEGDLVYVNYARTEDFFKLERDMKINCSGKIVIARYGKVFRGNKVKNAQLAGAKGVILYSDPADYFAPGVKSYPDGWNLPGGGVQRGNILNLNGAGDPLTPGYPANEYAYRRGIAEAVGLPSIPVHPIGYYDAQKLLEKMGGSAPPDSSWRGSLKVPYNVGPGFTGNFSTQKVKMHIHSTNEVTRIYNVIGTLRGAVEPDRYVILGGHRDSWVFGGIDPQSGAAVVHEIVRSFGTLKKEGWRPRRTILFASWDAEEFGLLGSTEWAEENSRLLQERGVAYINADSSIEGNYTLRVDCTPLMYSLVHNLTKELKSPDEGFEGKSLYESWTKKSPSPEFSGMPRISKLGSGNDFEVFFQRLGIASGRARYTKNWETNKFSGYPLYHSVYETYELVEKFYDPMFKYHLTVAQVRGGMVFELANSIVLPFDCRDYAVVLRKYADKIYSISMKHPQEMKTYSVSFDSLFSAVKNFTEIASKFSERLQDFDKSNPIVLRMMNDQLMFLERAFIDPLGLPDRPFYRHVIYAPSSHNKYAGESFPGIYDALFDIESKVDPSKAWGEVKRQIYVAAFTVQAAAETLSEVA

Ki	PSMA Blkg % (1.0 μM)	PSMA Blkg % (10 μM)	Molecule
0.9 nM	98%	–	O=C(O)CC[C@H](NC(=O)N[C@@H](CCCCNC(=O)c1cc(NC(=O)Cn2cc(CCCF)nn2)cc(C(=O)NCCCC[C@H](NC(=O)N[C@@H](CCC(=O)O)C(=O)O)C(=O)O)c1)C(=O)O)C(=O)O [P283, (2S,2′S)-2,2′-(((((1S,1′S)-((5-(2-(4-(3-fluoropropyl)-1H-1,2,3-triazol-1-yl)acetamido)isophthaloyl)bis(azanediyl))bis(1-carboxypentane-5,1-diyl))bis(azanediyl))bis(carbonyl))bis(azanediyl))dipentanedioic Acid]
–	96%	–	O=C(O)CC[C@H](NC(=O)N[C@@H](CC1CCN(C(=O)c2cc(C(=O)O)cc(-n3cc(CCCF)nn3)c2)CC1)C(=O)O)C(=O)O [P284, (S)-2-(3-((S)-1-Carboxy-2-(1-(3-carboxy-5-(4-(3-fluoropropyl)-1H-1,2,3-triazol-1-yl)benzoyl)piperidin-4-yl)ethyl)ureido)pentanedioic Acid]
12.5 nM	92%	–	O=C(O)CC[C@H](NC(=O)N[C@@H](CCCCNC(=O)c1cc(C(=O)N2CCN(C(=O)Nc3ccc(C[C@H](NC(=O)N[C@@H](CCC(=O)O)C(=O)O)C(=O)O)cc3)CC2)cc(-n2cc(CCCF)nn2)c1)C(=O)O)C(=O)O [P286, (S)-2-(3-((S)-1-Carboxy-2-(4-(4-(3-(((S)-5-carboxy-5-(3-((S)-1,3-dicarboxypropyl)ureido)pentyl)carbamoyl)-5-(4-(3-fluoropropyl)-1H-1,2,3-triazol-1-yl)benzoyl)piperazine-1-carboxamido)phenyl)ethyl)ureido)pentanedioic Acid]
9.7 nM	85%	–	NCCOCCOCCOCCOCc1cn(-c2cc(C(=O)NCCCC[C@H](NC(=O)N[C@@H](CCC(=O)O)C(=O)O)C(=O)O)cc(C(=O)NCCCC[C@H](NC(=O)N[C@@H](CCC(=O)O)C(=O)O)C(=O)O)c2)nn1 [P288, (2S,2′S)-2,2′-(((((1S,1′S)-((5-(4-(13-Amino-2,5,8,11-tetraoxatridecyl)-1H-1,2,3-triazol-1-yl)isophthaloyl)bis(azanediyl))bis(1-carboxypentane-5,1-diyl))bis(azanediyl))bis(carbonyl))-bis(azanediyl))dipentanedioic Acid]
–	0%	–	[N-]=[N+]=Nc1cc(C(=O)NCCCCCC(=O)N[C@@H](CCC(=O)O)C(=O)O)cc(C(=O)NCCCCCC(=O)N[C@@H](CCC(=O)O)C(=O)O)c1 [P289, (2S,2′S)-2,2′-((6,6′-((5-Azidoisophthaloyl)bis(azanediyl))bis(hexanoyl))-bis(azanediyl))dipentanedioic Acid]
–	0%	–	O=C(O)CC[C@H](NC(=O)NCCCCCNC(=O)c1cc(C(=O)NCCCCCNC(=O)N[C@@H](CCC(=O)O)C(=O)O)cc(-n2cc(CCCF)nn2)c1)C(=O)O [P290, (2S,2′S)-2,2′-((((((5-(4-(3-Fluoropropyl)-1H-1,2,3-triazol-1-yl)isophthaloyl)bis(azanediyl))bis(pentane-5,1-diyl))bis(azanediyl))bis(carbonyl))-bis(azanediyl))dipentanedioic Acid]
5 nM	95%	–	O=C(O)CC[C@H](NC(=O)N[C@@H](Cc1ccc(NC(=O)CCC(CCC(=O)Nc2ccc(C[C@H](NC(=O)N[C@@H](CCC(=O)O)C(=O)O)C(=O)O)cc2)(CCC(=O)Nc2ccc(C[C@H](NC(=O)N[C@@H](CCC(=O)O)C(=O)O)C(=O)O)cc2)NC(=O)Cn2cc(CCCF)nn2)cc1)C(=O)O)C(=O)O [P291, (2S,2′S)-2,2′-(((((1S,1′S)-((((4S)-4-(3-((4-((2S)-2-Carboxy-2-(3-(1,3-dicarboxypropyl)-ureido)ethyl)phenyl)amino)-3-oxopropyl)-4-(2-(4-(3-fluoropropyl)-1H-1,2,3-triazol-1-yl)acetamido)heptanedioyl)bis(azanediyl))bis(4,1-phenylene))bis(1-carboxyethane-2,1-diyl))bis(azanediyl))bis(carbonyl))bis(azanediyl))dipentanedioic Acid]
–	45% and 90%	–	O=C(O)CC[C@H](NC(=O)[C@H](CC(=O)O)NC(=O)CCCNC(=O)c1cc(C(=O)NCCCC(=O)N[C@@H](CC(=O)O)C(=O)N[C@@H](CCC(=O)O)C(=O)O)cc([N+](=O)[O-])c1)C(=O)O [P293, (2S,2′S)-2,2′-(((2S,2′S)-2,2′-((4,4′-((5-Nitroisophthaloyl)bis(azanediyl))bis(butanoyl))-bis(azanediyl))bis(3-carboxypropanoyl))bis(azanediyl))dipentanedioic Acid]
–	99%	–	NCCOCCOCCOCCOCc1cn(-c2cc(C(=O)Nc3ccc(C[C@H](NC(=O)N[C@@H](CCC(=O)O)C(=O)O)C(=O)O)cc3)cc(C(=O)Nc3ccc(C[C@H](NC(=O)N[C@@H](CCC(=O)O)C(=O)O)C(=O)O)cc3)c2)nn1 [P294, (2S,2′S)-2,2′-(((((1S,1′S)-(((5-(4-(13-Amino-2,5,8,11-tetraoxatridecyl)-1H-1,2,3-triazol-1-yl)isophthaloyl)bis(azanediyl))bis(4,1-phenylene))bis(1-carboxyethane-2,1-diyl))-bis(azanediyl))bis(carbonyl))bis(azanediyl))dipentanedioic Acid]
–	45%	–	O=C(O)CC[C@@H](NC(=O)N[C@@H](CCCCNC(=O)OCc1ccccc1)C(=O)O)C(=O)O [P295, (9S,13R)-3,11-Dioxo-1-phenyl-2-oxa-4,10,12-triazapentadecane-9,13,15-tricarboxylic Acid]
–	31%	–	O=C(O)CC[C@@H](NC(=O)N[C@@H](CCCCNC(=O)c1cc(C(=O)NCCCC[C@H](NC(=O)N[C@H](CCC(=O)O)C(=O)O)C(=O)O)cc(-n2cc(CCCF)nn2)c1)C(=O)O)C(=O)O [P297, (2R,2′R)-2,2′-(((((1S,1′S)-((5-(4-(3-Fluoropropyl)-1H-1,2,3-triazol-1-yl)isophthaloyl)-bis(azanediyl))bis(1-carboxypentane-5,1-diyl))bis(azanediyl))bis(carbonyl))-bis(azanediyl))dipentanedioic Acid]
–	88%	–	O=C(O)CC[C@H](NC(=O)C[C@@H](NC(=O)CCCNC(=O)c1cc(C(=O)NCCCC(=O)N[C@H](CC(=O)N[C@@H](CCC(=O)O)C(=O)O)C(=O)O)cc([N+](=O)[O-])c1)C(=O)O)C(=O)O [P298, (2S,2′S)-2,2′-(((3R,3′R)-3,3′-((4,4′-((5-Nitroisophthaloyl)bis(azanediyl))bis(butanoyl))-bis(azanediyl))bis(3-carboxypropanoyl))bis(azanediyl))dipentanedioic Acid]
–	–	77%	(9S,13S)-9-Carboxy-13-((1-(2-fluoroethyl)-1H-1,2,3-triazol-4-yl)methyl)-3,11-dioxo-1-phenyl-2-oxa-4,10,12-triazatetradecan-14-oic Acid [P187]
219 nM	–	88%	(S)-2-(3-((S)-1-Carboxy-5-(4-(2-fluoroethoxy)benzamido)pentyl)ureido)pentanedioic Acid [P160]

Molecule	Ki	PSMA Blkg % (1.0 μM)	PSMA Blkg % (10 μM)
O=C(O)CCC(NC(=O)N[C@@H](Cc1ccc(NC(=O)CCC(CCC(=O)Nc2ccc(CC(NC(=O)N[C@@H](CCC(=O)O)C(=O)O)C(=O)O)cc2)(CCC(=O)Nc2ccc(C[C@H](NC(=O)NC(CCC(=O)O)C(=O)O)C(=O)O)cc2)NC(=O)CCCCn2cc(CCCF)nn2)cc1)C(=O)O)C(=O)O (stereo partly drawn) [P285, (2S,2′S)-2,2′-(((((1S,1′S)-(((4-(3-((4-((S)-2-Carboxy-2-(3-((S)-1,3-dicarboxypropyl)ureido)ethyl)phenyl)amino)-3-oxopropyl)-4-(5-(4-(3-fluoropropyl)-1H-1,2,3-triazol-1-yl)pentanamido)heptanedioyl)bis(azanediyl))bis(4,1-phenylene))bis(1-carboxyethane-2,1-diyl))bis(azanediyl))bis(carbonyl))bis(azanediyl))dipentanedioic Acid]	0.5 nM	–	–
O=C(O)CCC(NC(=O)N[C@@H](CCCCNC(=O)CCC(CCC(=O)NCCCC[C@H](NC(=O)NC(CCC(=O)O)C(=O)O)C(=O)O)(CCC(=O)NCCCC[C@H](NC(=O)NC(CCC(=O)O)C(=O)O)C(=O)O)NC(=O)c1ccc(-n2cc(CCCF)nn2)cc1)C(=O)O)C(=O)O (stereo partly drawn) [P287, (3S,7S,25S,29S)-16-(3-(((S)-5-Carboxy-5-(3-((S)-1,3-dicarboxypropyl)ureido)pentyl)amino)-3-oxopropyl)-16-(4-(4-(3-fluoropropyl)-1H-1,2,3-triazol-1-yl)benzamido)-5,13,19,27-tetraoxo-4,6,12,20,26,28-hexaazahentriacontane-1,3,7,25,29,31-hexacarboxylic Acid]	1 nM	95%	–
O=C(O)CC[C@H](NC(=O)C[C@@H](NC(=O)CCCCCNC(=O)c1cc(C(=O)NCCCCCC(=O)N[C@H](CC(=O)N[C@@H](CCC(=O)O)C(=O)O)C(=O)O)cc([N+](=O)[O-])c1)C(=O)O)C(=O)O [P296, (2S,2′S)-2,2′-(((3R,3′R)-3,3′-((6,6′-((5-nitroisophthaloyl)bis(azanediyl))bis(hexanoyl))-bis(azanediyl))bis(3-carboxypropanoyl))bis(azanediyl))dipentanedioic Acid]	–	72%	–
